The experiment addresses T1, TYK2 kinase domain (Homo sapiens, UniProt P29597).
T1 construct: The activity of the isolated JAK1, JAK2 or TYK2 kinase domain was measured
T1 sequence (P29597 897-1176 limits assumed): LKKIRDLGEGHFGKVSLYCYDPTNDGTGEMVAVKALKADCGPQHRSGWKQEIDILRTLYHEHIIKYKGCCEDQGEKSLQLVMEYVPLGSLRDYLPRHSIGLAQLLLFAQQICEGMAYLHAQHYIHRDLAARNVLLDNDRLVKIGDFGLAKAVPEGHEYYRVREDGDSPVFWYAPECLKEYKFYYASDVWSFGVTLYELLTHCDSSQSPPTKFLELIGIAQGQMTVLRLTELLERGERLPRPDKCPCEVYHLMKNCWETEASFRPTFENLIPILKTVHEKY
Description: JAK1, JAK2 and TYK2 Inhibition Assay Protocol (Example A): TYK2 kinase domain, Caliper LabChip peptide phosphorylation. The class given is biochemical. The note with it: isolated TYK2 kinase domain, 1 nM enzyme, 25 uM ATP, Morrison tight binding model. The procedure:
The activity of the isolated JAK1, JAK2 or TYK2 kinase domain was measured by monitoring phosphorylation of a peptide derived from JAK3 (Val-Ala-Leu-Val-Asp-Gly-Tyr-Phe-Arg-Leu-Thr-Thr) fluorescently labeled on the N-terminus with 5-carboxyfluorescein using the Caliper LabChip technology (Caliper Life Sciences, Hopkinton, Mass.). To determine the inhibition constants (Ki) of Examples 1-165, compounds were diluted serially in DMSO and added to 50 μL kinase reactions containing 1.5 nM JAK1, 0.2 nM purified JAK2 or 1 nM purified TYK2 enzyme, 100 mM Hepes pH7.2, 0.015% Brij-35, 1.5 uM peptide substrate, 25 uM ATP, 10 mM MgCl2, 4 mM DTT at a final DMSO concentration of 2%. Reactions were incubated at 22° C. in 384-well polypropylene microtiter plates for 30 minutes and then stopped by addition of 25 μL of an EDTA containing solution (100 mM Hepes pH 7.2, 0.015% Brij-35, 150 mM EDTA), resulting in a final EDTA concentration of 50 mM. After termination of the kinase reaction, the proportion of phosphorylated product was determined as a fraction of total peptide substrate using the Caliper LabChip 3000 according to the manufacturer's specifications. Ki values were then determined using the Morrison tight binding model. Morrison, J. F., Biochim. Biophys. Acta. 185:269-296 (1969); William, J. W. and Morrison, J. F., Meth. Enzymol., 63:437-467 (1979).

Counter-ions that a name gives are not always drawn.

The compound `O=C(Nc1nccc2nn(-c3c(Cl)cccc3Cl)cc12)C1CC1` [Example 1, N-(2-(2,6-Dichlorophenyl)-2H-pyrazolo[4,3-c]pyridin-4-yl)cyclopropanecarboxamide] displayed a Ki of 1.3 nM.
`Cc1cc(Nc2nccc3nn(-c4c(Cl)cccc4Cl)cc23)nc(C)n1` [Example 2, [2-(2,6-Dichlorophenyl)-2H-pyrazolo[4,3-c]pyridine-4-yl]-(2,6-dimethylpyrimidin-4-yl)amine]: the Ki amounted to 2 nM.
The result for `N#Cc1ccc(Nc2nccc3nn(-c4c(Cl)cccc4Cl)cc23)nc1` [Example 3, 6-[2-(2,6-Dichlorophenyl)-2H-pyrazolo[4,3-c]pyridin-4-ylamino]nicotinonitrile] reads 3 nM.
As to `COC(=O)Nc1nccc2nn(-c3c(Cl)cccc3Cl)cc12` [Example 6, [2-(2,6-Dichlorophenyl)-2H-pyrazolo[4,3-c]pyridine-4-yl]carbamic acid methyl ester], the affinity corresponds to a Ki of 5.2 nM.
`CNC(=O)Nc1nccc2nn(-c3c(Cl)cccc3Cl)cc12` [Example 7, 1-[2-(2,6-Dichlorophenyl)-2H-pyrazolo[4,3-c]pyridine-4-yl]-3-methylurea]: the affinity corresponds to a Ki of 3.3 nM.
The same measure for `O=C(Nc1nccc2nn(-c3c(F)cccc3Cl)cc12)C1CC1` [Example 15, N-(2-(2-chloro-6-fluorophenyl)-2H-pyrazolo[4,3-c]pyridin-4-yl)cyclopropanecarboxamide]: 1.6 nM.
With `Cc1cc(Nc2ncc(Cl)c3nn(-c4c(Cl)cc(C#N)cc4Cl)cc23)ncn1` [Example 30, 3,5-Dichloro-4-[7-chloro-4-(6-methylpyrimidin-4-ylamino)pyrazolo[4,3-c]pyridin-2-yl]benzonitrile], the Ki was found to be 5.6 nM.
`N#Cc1cc(Cl)c(-n2cc3c(Nc4cc(N)ncn4)ncc(F)c3n2)c(Cl)c1` [Example 34, 4-[4-(6-Amino-pyrimidin-4-ylamino)-7-fluoro-pyrazolo[4,3-c]pyridin-2-yl]-3,5-dichlorobenzonitrile.HCl] yielded a Ki of 0.4 nM.
The same measure for `OCc1cc(Nc2ncc(Br)c3nn(-c4c(Cl)cccc4Cl)cc23)ncn1` [Example 37, {6-[7-Bromo-2-(2,6-dichloro-phenyl)-2H-pyrazolo[4,3-c]pyridin-4-ylamino]-pyrimidin-4-yl}-methanol]: 0.4 nM.
The same measure for `N#Cc1cnc(Nc2cc(N)ncn2)c2cn(-c3c(Cl)cccc3Cl)nc12` [Example 40, 4-(6-Aminopyrimidin-4-ylamino)-2-(2,6-dichlorophenyl)-2H-pyrazolo[4,3-c]pyridine-7-carbonitrile]: 1.1 nM.
As for `OCCN1CCN(c2cc(Nc3nccc4nn(-c5c(Cl)cccc5Cl)cc34)ncn2)CC1` [Example 49, 2-(4-(6-((2-(2,6-dichlorophenyl)-2H-pyrazolo[4,3-c]pyridin-4-yl)amino)-pyrimidin-4-yl)piperazin-1-yl)ethan-1-ol], the Ki is 1.9 nM.
Regarding `Cc1cc(Nc2nccc3nn(-c4c(Cl)cccc4Cl)cc23)ncc1C#N` [Example 53, 6-[2-(2,6-Dichlorophenyl)-2H-pyrazolo[4,3-c]pyridin-4-ylamino]-4-methyl-nicotinonitrile], the inhibitory constant (Ki) was found to be 1 nM.
The same measure for `CS(=O)(=O)c1cc(Cl)c(-n2cc3c(NC(=O)C4CC4)nccc3n2)c(Cl)c1` [Example 67, N-(2-(2,6-dichloro-4-methane-sulphonyl-phenyl)-2H-pyrazolo[4,3-c]pyridine-4-yl)cyclopropane-carboxamide]: 14.9 nM; for `N#Cc1cc(Cl)c(-n2cc3c(NC(=O)C4CC4)nccc3n2)c(Cl)c1` [Example 69, N-(2-(2,6-dichloro-4-cyanophenyl)-2H-pyrazolo[4,3-c]pyridin-4-yl)cyclopropane-carboxamide]: 2 nM; for `Nc1cc(Nc2nccc3nn(-c4c(F)ccc(F)c4Cl)cc23)ncn1` [Example 81, N4-(2-(2-chloro-3,6-difluorophenyl)-2H-pyrazolo[4,3-c]pyridin-4-yl)pyrimidine-4,6-diamine]: 2.2 nM.
Take `CC(O)c1cc(Nc2ncc(F)c3nn(-c4c(Cl)cccc4C#N)cc23)ncn1` (stereo not shown) [Example 96, 3-Chloro-2-{7-fluoro-4-[6-(1-hydroxyethyl)-pyrimidin-4-ylamino]-pyrazolo[4,3-c]pyridin-2-yl}-benzonitrile]: the Ki was 0.8 nM.
In turn, `N#Cc1cc(N)cc(Cl)c1-n1cc2c(Nc3cc(N)ncn3)ncc(F)c2n1` [Example 101, 5-Amino-2-[4-(6-aminopyrimidin-4-ylamino)-7-fluoropyrazolo[4,3-c]pyridin-2-yl]-3-chlorobenzonitrile formate salt] gave a Ki of 105 nM.
The same measure for `N#Cc1cccc(Cl)c1-n1cc2c(Nc3cc(N)ncn3)ncc(Cl)c2n1` [Example 151, 2-(4-(6-aminopyrimidin-4-ylamino)-7-chloro-2H-pyrazolo[4,3-c]pyridin-2-yl)-3-chlorobenzonitrile]: 0.1 nM; for `Cc1cc(Nc2cc(Cl)c(-n3cc4c(Nc5cc(C)ncn5)nccc4n3)c(C#N)c2)ncn1` [Example 158, 3-chloro-5-(6-methylpyrimidin-4-ylamino)-2-(4-(6-methylpyrimidin-4-ylamino)-2H-pyrazolo[4,3-c]pyridin-2-yl)benzonitrile]: 1.8 nM.

Source of the values: patent publication US9309240B2, “Pyrazolopyridine compounds, compositions and methods of use” (F. HOFFMANN-LA ROCHE AG, priority 2010, dated 2016).
